According to patent US9457033B2, “Steroid alkaloids and uses thereof as antimicrobial agents against electron transport-deficient microbes and as potentiators for antimicrobial agents against pathogenic bacteria” (priority 2011, dated 2016):
≈ marks a conversion by molar mass, not a printed value.

What was measured:
S. aureus ATCC 29213 [1] = assay: MIC, microdilution in BHI 48 h (Examples 1, 3); format: cell-based, Staphylococcus aureus
[2] = tested on: S. aureus Newbould (normal strain); assay: MIC, microdilution in BHI 48 h; format: cell-based, Staphylococcus aureus
[3] = tested on: S. aureus SCV NewbouldΔhemB; assay: MIC, microdilution in BHI 48 h; format: cell-based, Staphylococcus aureus
[4] = tested on: S. aureus CF07-L (normal strain); assay: MIC, microdilution in BHI 48 h (Examples 1, 3); format: cell-based, Staphylococcus aureus
S. aureus SCV CF07-S = assay: MIC, microdilution in BHI 48 h (Examples 1, 3); format: cell-based, Staphylococcus aureus
[5] = tested on: S. aureus CF1A-L (normal strain); assay: MIC, microdilution in BHI 48 h; format: cell-based, Staphylococcus aureus
S. aureus SCV CF1D-S = assay: MIC, microdilution in BHI 48 h; format: cell-based, Staphylococcus aureus
[6] = tested on: S. aureus SCVs (NewbouldΔhemB, CF07-S and CF1D-S); assay: MIC, microdilution in BHI 48 h, summary for SCVs; format: cell-based, Staphylococcus aureus; conditions: all SCVs of Table 1
S. aureus ATCC 29213 [7] = assay: MICs of control antibiotics for macromolecular biosynthesis assays; format: cell-based; conditions: Staphylococcus aureus, ATCC29213
[8] = tested on: protein, DNA, RNA and cell wall peptidoglycan biosynthesis in ATCC 29213; assay: Macromolecular biosynthesis assay, incorporation of radiolabeled precursors; format: cell-based, Staphylococcus aureus; conditions: control antibiotics at approximately 4×MIC; FIG. 3A
S. aureus ATCC 29213 [9] = assay: MIC, microdilution in CAMHB 24 h, with or without tomatidine/compound; format: cell-based, Staphylococcus aureus; conditions: for MIC: Staphylococcus aureus
S. aureus 8325-4 = assay: MIC, microdilution in CAMHB 24 h; format: cell-based, Staphylococcus aureus; conditions: Staphylococcus aureus, 83254
S. aureus Newbould = assay: MIC, microdilution in CAMHB 24 h; format: cell-based, Staphylococcus aureus; conditions: Staphylococcus aureus
S. aureus SHY97-3906 = assay: MIC, microdilution in CAMHB 24 h; format: cell-based, Staphylococcus aureus; conditions: Staphylococcus aureus, SHY973906
S. aureus ATCC 43300 = assay: MIC, microdilution in CAMHB 24 h; format: cell-based, Staphylococcus aureus; conditions: Staphylococcus aureus, ATCC 43300 / MRSA
S. aureus ATCC BAA-41 = assay: MIC, microdilution in CAMHB 24 h; format: cell-based, Staphylococcus aureus; conditions: Staphylococcus aureus, ATCC BAA-41 / MRSA
S. aureus N315 = assay: microbe, parasite or virus in culture; format: cell-based, Staphylococcus aureus; conditions: Staphylococcus aureus, MRSA
S. aureus MA078038 = assay: MIC, microdilution in CAMHB 24 h; format: cell-based, Staphylococcus aureus; conditions: Staphylococcus aureus, MRSA
S. aureus Newman = assay: MIC, microdilution in CAMHB 24 h; format: cell-based, Staphylococcus aureus; conditions: Staphylococcus aureus, NEWMAN
S. aureus MRSA COL = assay: MIC, microdilution in CAMHB 24 h; format: cell-based, Staphylococcus aureus; conditions: Staphylococcus aureus, MRSA
S. aureus Mu50 = assay: MIC, microdilution in CAMHB 24 h; format: cell-based, Staphylococcus aureus; conditions: Staphylococcus aureus, MRSA / VISA
S. aureus Sa220c = assay: MIC, microdilution in CAMHB 24 h; format: cell-based, Staphylococcus aureus; conditions: Staphylococcus aureus, MRSA
S. aureus Sa228c = assay: MIC, microdilution in CAMHB 24 h; format: cell-based, Staphylococcus aureus; conditions: Staphylococcus aureus, MRSA
S. aureus CF1A-L = assay: MIC, microdilution in CAMHB 24 h; format: cell-based, Staphylococcus aureus; conditions: Staphylococcus aureus, CF1AL
S. aureus CF2A-L = assay: MIC, microdilution in CAMHB 24 h; format: cell-based; conditions: Staphylococcus aureus, CF2AL
S. aureus CF4B-L = assay: MIC, microdilution in CAMHB 24 h; format: cell-based, Staphylococcus aureus; conditions: Staphylococcus aureus, CF4BL
S. aureus CF6B-L = assay: MIC, microdilution in CAMHB 24 h; format: cell-based, Staphylococcus aureus; conditions: Staphylococcus aureus, CF6BL
S. aureus CF7A-L = assay: MIC, microdilution in CAMHB 24 h; format: cell-based, Staphylococcus aureus; conditions: Staphylococcus aureus, MRSA
S. aureus CF8E-L = assay: MIC, microdilution in CAMHB 24 h; format: cell-based, Staphylococcus aureus; conditions: Staphylococcus aureus, CF8EL
S. aureus CF9A-L = assay: MIC, microdilution in CAMHB 24 h; format: cell-based, Staphylococcus aureus; conditions: Staphylococcus aureus, MRSA
S. aureus CF35A-L = assay: MIC, microdilution in CAMHB 24 h; format: cell-based, Staphylococcus aureus; conditions: Staphylococcus aureus, MRSA
S. aureus CF07-L = assay: MIC, microdilution in CAMHB 24 h; format: cell-based, Staphylococcus aureus; conditions: Staphylococcus aureus, CF07L

C[C@H]1CC[C@]2(NC1)O[C@H]1C[C@H]3[C@@H]4CC[C@H]5C[C@@H](O[C@@H]6O[C@H](CO)[C@H](O[C@@H]7O[C@H](CO)[C@@H](O)[C@H](O[C@@H]8OC[C@@H](O)[C@H](O)[C@H]8O)[C@H]7O[C@@H]7O[C@H](CO)[C@@H](O)[C@H](O)[C@H]7O)[C@H](O)[C@H]6O)CC[C@]5(C)[C@H]4CC[C@]3(C)[C@H]1[C@@H]2C [Tomatine, tomatine]
MIC (S. aureus ATCC 29213 [1]; ATCC 29213 + HQNO at 20 μg/ml): >16 µg/mL | MIC (S. aureus ATCC 29213 [1]; ATCC 29213, without HQNO): >16 µg/mL | MIC (S. aureus ATCC 29213 [1]; ATCC 29213 in BHI): >16 µg/mL | MIC (S. aureus ATCC 29213 [1]; ATCC 29213 in MHBCA): >16 µg/mL | MIC ([2]; Newbould, normal strain): >16 µg/mL | MIC ([3]; NewbouldΔhemB, SCV): >16 µg/mL | MIC ([4]; CF07-L + HQNO at 20 μg/ml): >16 µg/mL | MIC ([4]; CF07-L, normal strain): >16 µg/mL | MIC ([4]; CF07-L, without HQNO): >16 µg/mL | MIC (S. aureus SCV CF07-S; CF07-S + HQNO at 20 μg/ml): >16 µg/mL | MIC (S. aureus SCV CF07-S; CF07-S, SCV): >16 µg/mL | MIC (S. aureus SCV CF07-S; CF07-S, without HQNO): >16 µg/mL | MIC ([5]; CF1A-L, normal strain): >16 µg/mL | MIC (S. aureus SCV CF1D-S; CF1D-S, SCV): >16 µg/mL | MIC against all SCVs [6]: no MIC was observed

CN[C@H](CC(C)C)C(=O)N[C@H]1C(=O)N[C@@H](CC(N)=O)C(=O)N[C@H]2C(=O)N[C@H]3C(=O)N[C@H](C(=O)N[C@H](C(=O)O)c4cc(O)cc(O)c4-c4cc3ccc4O)[C@H](O)c3ccc(c(Cl)c3)Oc3cc2cc(c3O[C@@H]2O[C@H](CO)[C@@H](O)[C@H](O)[C@H]2O[C@H]2C[C@](C)(N)[C@H](O)[C@H](C)O2)Oc2ccc(cc2Cl)[C@H]1O [Vancomycin, vancomycin]
MIC (S. aureus ATCC 29213 [1]; ATCC 29213 + HQNO at 20 μg/ml): 2 µg/mL | MIC (S. aureus ATCC 29213 [1]; Staphylococcus aureus, ATCC29213, ATCC 29213, without HQNO): 2 µg/mL (≈ 1.38 µM) | MIC (S. aureus ATCC 29213 [1]; Staphylococcus aureus, ATCC29213, ATCC 29213 in BHI): 2 µg/mL (≈ 1.38 µM) | MIC (S. aureus ATCC 29213 [1]; Staphylococcus aureus, ATCC29213, ATCC 29213 in MHBCA): 1 to 2 µg/mL (≈ 0.69 to 1.38 µM) | MIC ([2]; Staphylococcus aureus): 1 µg/mL (≈ 0.69 µM) | MIC ([3]; Staphylococcus aureus): 2 µg/mL (≈ 1.38 µM) | MIC ([4]; CF07-L + HQNO at 20 μg/ml): 2 µg/mL | MIC ([4]; CF07-L, without HQNO): 2 µg/mL (≈ 1.38 µM) | MIC ([4]; Staphylococcus aureus): 2 µg/mL (≈ 1.38 µM) | MIC (S. aureus SCV CF07-S; CF07-S + HQNO at 20 μg/ml): 2 µg/mL | MIC (S. aureus SCV CF07-S; CF07-S, without HQNO): 2 µg/mL (≈ 1.38 µM) | MIC (S. aureus SCV CF07-S; Staphylococcus aureus, SCVCF07S): 2 µg/mL (≈ 1.38 µM) | MIC ([5]; Staphylococcus aureus): 1 to 2 µg/mL (≈ 0.69 to 1.38 µM) | MIC (S. aureus SCV CF1D-S; Staphylococcus aureus, SCVCF1DS): 2 µg/mL (≈ 1.38 µM) | MIC (S. aureus ATCC 29213 [7]): 0.5 to 1 µg/mL (≈ 0.345 to 0.69 µM) | incorporation of radiolabeled precursors into the targeted macromolecules [8]: preferentially inhibited | Fold (−TO/+TO) (S. aureus ATCC 29213 [9]; ATCC 29213, tomatidine at 8 μg/ml): 1 fold | MIC (S. aureus ATCC 29213 [9]; ATCC29213): 1 µg/mL (≈ 0.69 µM) | MIC (S. aureus ATCC 29213 [9]; ATCC29213, read-out: MIC −TO): 1 µg/mL (≈ 0.69 µM) | MIC (S. aureus 8325-4): 1 µg/mL (≈ 0.69 µM) | MIC (S. aureus Newbould): 0.5 to 1 µg/mL (≈ 0.345 to 0.69 µM) | MIC (S. aureus SHY97-3906): 0.5 to 1 µg/mL (≈ 0.345 to 0.69 µM) | MIC (S. aureus ATCC 43300): 0.5 to 1 µg/mL (≈ 0.345 to 0.69 µM) | MIC (S. aureus ATCC BAA-41): 1 µg/mL (≈ 0.69 µM) | MIC (S. aureus N315): 0.5 µg/mL (≈ 0.345 µM) | MIC (S. aureus MA078038): 0.5 to 1 µg/mL (≈ 0.345 to 0.69 µM) | MIC (S. aureus Newman): 1 µg/mL (≈ 0.69 µM) | MIC (S. aureus MRSA COL): 2 µg/mL (≈ 1.38 µM) | MIC (S. aureus Mu50): 4 µg/mL (≈ 2.76 µM) | MIC (S. aureus Sa220c): 1 µg/mL (≈ 0.69 µM) | MIC (S. aureus Sa228c): 1 µg/mL (≈ 0.69 µM) | MIC (S. aureus CF1A-L): 1 µg/mL (≈ 0.69 µM) | MIC (S. aureus CF2A-L): 1 µg/mL (≈ 0.69 µM) | MIC (S. aureus CF4B-L): 1 µg/mL (≈ 0.69 µM) | MIC (S. aureus CF6B-L): 0.5 to 1 µg/mL (≈ 0.345 to 0.69 µM) | MIC (S. aureus CF7A-L): 1 µg/mL (≈ 0.69 µM) | MIC (S. aureus CF8E-L): 1 to 2 µg/mL (≈ 0.69 to 1.38 µM) | MIC (S. aureus CF9A-L): 1 µg/mL (≈ 0.69 µM) | MIC (S. aureus CF35A-L): 1 µg/mL (≈ 0.69 µM) | MIC (S. aureus CF07-L): 1 to 2 µg/mL (≈ 0.69 to 1.38 µM)
